Reference: US12187816B2, “Macrocyclic compounds and methods of use thereof” (Genentech, Inc., priority 2020, dated 2025)
Positions of bridges follow the written chain, without caps; N, C: chain ends. Non-standard residues stand in square brackets, D forms with d. Residues, ends and D or L forms follow the SMILES beside them. *: point of attachment. JQ1acid = Cc1sc2c(c1C)C(c1ccc(Cl)cc1)=N[C@@H](CC(=O)*)c1nnc(C)n1-2; dPhg(4-(4-Me-thiazol-5-yl)) = Cc1ncsc1-c1ccc([C@@H](N)C(=O)O)cc1; X2 = COc1ccc2c(c1)C(c1ccc(Cl)cc1)=N[C@@H](CC(=O)*)c1nnc(C)n1-2; dBip = N[C@H](Cc1ccc(-c2ccccc2)cc1)C(=O)O; Hyp = O=C(O)[C@@H]1C[C@@H](O)CN1; Tle = CC(C)(C)[C@H](N)C(=O)O; dDap = NC[C@@H](N)C(=O)O; AEA = NCCOCC(=O)O

Target: T1, BRD4 (Homo sapiens, UniProt O60885)
T1 construct: Mean 488 intensity of BRD4 quantitated in nuclear region; endogenous in cells; host or cells: EoL-1 eosinophilic leukemia cells
Experiment: BRD4 degradation assay in EOL1 cells (immunofluorescence imaging)
Type: cell-based
Settings: EoL-1 eosinophilic leukemia cells, 4 hours treatment, nuclear BRD4 immunofluorescence
Method in brief: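 EoL-1 cells treated 4 h at 37 °C with 20-point 1/3 serial dilutions (0.2% DMSO) in RPMI/10% FBS, then fixed and immunostained for BRD4. Mean nuclear BRD4 intensity measured by high-content imaging, with Hoechst nuclear masking. DMSO and no-primary-antibody controls define 0 and 100%; DC50 and maximal effect from dose-response fit.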

| Structure (SMILES) | DC50 [nM] |
| --- | --- |
| Cc1sc2c(c1C)C(c1ccc(Cl)cc1)=N[C@@H](CC(=O)NC[C@H]1NC(=O)[C@@H](Cc3ccc(-c4ccccc4)cc3)NC(=O)[C@@H](Cc3ccc(-c4ccccc4)cc3)NC(=O)[C@@H]3C[C@@H](O)CN3C(=O)[C@H](C(C)(C)C)NC(=O)COCCNC1=O)c1nnc(C)n1-2 [Compound 45] (cyclo([AEA][Tle][Hyp][dBip][dBip][dDap](JQ1acid))) | < 1000 |
| Cc1ncsc1-c1ccc([C@H]2NC(=O)[C@@H]3C[C@@H](O)CN3C(=O)[C@H](C(C)(C)C)NC(=O)CNC(=O)[C@H](C)NC(=O)[C@@H](CNC(=O)C[C@@H]3N=C(c4ccc(Cl)cc4)c4c(sc(C)c4C)-n4c(C)nnc43)NC(=O)CNC2=O)cc1 [Compound 33] (cyclo(AG[Tle][Hyp][dPhg(4-(4-Me-thiazol-5-yl))]G[dDap](JQ1acid))) | < 1000 |
| Cc1sc2c(c1C)C(c1ccc(Cl)cc1)=N[C@@H](CC(=O)NC[C@H]1NC(=O)[C@@H](CCCCN)NC(=O)[C@@H](Cc3ccc(-c4ccccc4)cc3)NC(=O)[C@@H]3C[C@@H](O)CN3C(=O)[C@H](C(C)(C)C)NC(=O)COCCNC1=O)c1nnc(C)n1-2 [Compound 72] (cyclo([AEA][Tle][Hyp][dBip][dK][dDap](JQ1acid))) | < 1000 |
| COc1ccc2c(c1)C(c1ccc(Cl)cc1)=N[C@@H](CC(=O)NC[C@H]1NC(=O)CNC(=O)[C@@H](c3ccc(-c4scnc4C)cc3)NC(=O)[C@@H]3C[C@@H](O)CN3C(=O)[C@H](C(C)(C)C)NC(=O)CSC[C@H](C(N)=O)NC1=O)c1nnc(C)n1-2 [Compound 50] ({CH2CO}-[Tle][Hyp][dPhg(4-(4-Me-thiazol-5-yl))]G[dDap](X2)[dC]-NH2; thioether N-6) | < 1000 |

More lines, now with the values ahead:

| DC50 [nM] | Structure (SMILES) |
| --- | --- |
| < 1000 | Cc1sc2c(c1C)C(c1ccc(Cl)cc1)=N[C@@H](CC(=O)N(C)C[C@H]1NC(=O)CNC(=O)[C@@H](Cc3ccc(-c4ccccc4)cc3)NC(=O)[C@@H]3C[C@@H](O)CN3C(=O)[C@H](C(C)(C)C)n3cc(nn3)COCCNC1=O)c1nnc(C)n1-2 [Compound 203] |
| < 50 | Cc1sc2c(c1C)C(c1ccc(Cl)cc1)=N[C@@H](CC(=O)NC[C@H]1NC(=O)CNC(=O)[C@@H](Cc3ccc(-c4ccccc4)cc3)NC(=O)[C@@H]3C[C@@H](O)CN3C(=O)[C@H](C(C)(C)C)n3cc(nn3)COCCN(C)C1=O)c1nnc(C)n1-2 [Compound 205] |
